Experimental findings from ChEMBL document CHEMBL5029175, “Discovery of MK-4688: an Efficient Inhibitor of the HDM2-p53 Protein-Protein Interaction” (J Med Chem, 2021) are described below.

The test system of one data set is HCT-116. Put plainly: cells. Particulars: Homo sapiens, HCT-116, 72 h.
Data set [1] is described as follows: Oral bioavailability in rat. In kind it is ADME, organism-based. To be noted: in vivo.
For data set [2], the target named is Tumour suppressor p53/oncoprotein Mdm2 (Homo sapiens, UniProt Q00987). The data set can be described thus: Inhibition of HDM2/p53 interaction in human HCT-116 cells expressing p53RE/Bla incubated for 16 hrs by beta-lactamase reporter gene assay. Format: cell-based.
Chain of Tumour suppressor p53/oncoprotein Mdm2 (P04637 whole entry, the tested form may be a part): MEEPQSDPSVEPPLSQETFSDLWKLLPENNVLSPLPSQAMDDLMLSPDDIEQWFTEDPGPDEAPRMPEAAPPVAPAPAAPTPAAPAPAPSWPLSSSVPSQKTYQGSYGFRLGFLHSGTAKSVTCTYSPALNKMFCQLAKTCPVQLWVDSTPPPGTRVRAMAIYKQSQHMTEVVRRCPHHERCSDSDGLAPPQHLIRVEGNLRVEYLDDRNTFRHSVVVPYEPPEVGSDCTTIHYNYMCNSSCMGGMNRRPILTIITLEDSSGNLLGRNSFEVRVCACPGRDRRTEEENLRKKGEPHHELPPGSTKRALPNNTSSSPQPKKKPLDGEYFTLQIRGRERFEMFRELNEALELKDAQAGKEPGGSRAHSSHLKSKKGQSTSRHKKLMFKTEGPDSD
Chain of Tumour suppressor p53/oncoprotein Mdm2 (Q00987 whole entry, the tested form may be a part): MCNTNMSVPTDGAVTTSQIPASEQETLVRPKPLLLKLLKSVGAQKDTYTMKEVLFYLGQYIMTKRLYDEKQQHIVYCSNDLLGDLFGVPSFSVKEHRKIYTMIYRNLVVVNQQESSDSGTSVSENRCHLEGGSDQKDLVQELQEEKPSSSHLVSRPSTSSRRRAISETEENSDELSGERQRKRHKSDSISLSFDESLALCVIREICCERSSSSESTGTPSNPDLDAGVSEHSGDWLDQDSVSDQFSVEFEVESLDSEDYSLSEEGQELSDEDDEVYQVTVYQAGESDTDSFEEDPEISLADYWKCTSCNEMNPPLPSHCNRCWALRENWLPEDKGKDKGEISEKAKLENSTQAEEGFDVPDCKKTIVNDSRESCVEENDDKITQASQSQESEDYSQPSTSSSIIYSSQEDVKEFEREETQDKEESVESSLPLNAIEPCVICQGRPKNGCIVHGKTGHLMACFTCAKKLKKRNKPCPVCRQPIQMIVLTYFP
A short description of data set [3]: Selectivity index, ratio of IC50 for inhibition of HDM2/p53 interaction in human HCT-116 cells expressing p53/Bla to IC50 for inhibition of N-terminal thioredoxin-His6 tagged HDM2 (17 to 125 residues)/p53 protein-protein interaction (unknown origin). Format: cell-based.
A short description of data set [4]: Mean residence time in rat. In kind it is ADME. Particulars: in vivo.
A short description of data set [5]: Lipophilicity, logD of the compound at pH 7 by RP-HPLC analysis. In kind it is physicochemical. To be noted: buffer.
Data set [6] in a line: Clearance in rat plasma. In kind it is ADME, cell-free.
A short description of data set [7]: Intrinsic clearance in human hepatocytes. To be noted: read-out: CLH. Format: ADME, cell-based, Hepatocyte.
Data set [8] in a line: Intrinsic clearance in rat hepatocytes. Format: ADME, cell-based, Hepatocyte. To be noted: read-out: CLH.
The target of a further data set is Cytochrome P450 2D6 (Homo sapiens, UniProt P10635). Put plainly: Inhibition of CYP2D6 (unknown origin). Format: ADME.
Chain of Cytochrome P450 2D6 (P10635 whole entry): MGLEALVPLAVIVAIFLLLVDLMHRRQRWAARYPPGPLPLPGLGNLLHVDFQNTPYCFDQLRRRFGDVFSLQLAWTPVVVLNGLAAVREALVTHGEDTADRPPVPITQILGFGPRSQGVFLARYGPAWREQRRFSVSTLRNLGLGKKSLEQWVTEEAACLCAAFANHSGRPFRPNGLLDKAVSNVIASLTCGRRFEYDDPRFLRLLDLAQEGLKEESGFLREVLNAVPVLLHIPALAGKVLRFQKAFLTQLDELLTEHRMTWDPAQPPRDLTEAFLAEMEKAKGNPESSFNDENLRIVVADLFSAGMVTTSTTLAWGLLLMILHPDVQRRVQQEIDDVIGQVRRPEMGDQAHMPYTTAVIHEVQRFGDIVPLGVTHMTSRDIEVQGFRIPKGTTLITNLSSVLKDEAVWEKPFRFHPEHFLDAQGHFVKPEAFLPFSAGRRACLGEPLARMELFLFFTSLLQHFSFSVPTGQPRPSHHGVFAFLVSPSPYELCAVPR
Data set [9] is described as follows: Clearance in rhesus monkey plasma at 0.5 mg/kg, iv. Format: ADME, organism-based, Macaca mulatta.
Data set [10] is described as follows: Terminal half life in dog at 0.5 mg/kg, po or 0.25 mg/kg, iv. In kind it is ADME, organism-based, Canis lupus familiaris. To be noted: in vivo, read-out: beta t1/2 (converted).
The nature of data set [11]: Plasma protein binding in rat. In kind it is ADME, cell-free. To be noted: read-out: PPB (converted).
The nature of data set [12]: Clearance in dog plasma at 0.5 mg/kg, po or 0.25 mg/kg, iv. In kind it is ADME, organism-based, Canis lupus familiaris.
The nature of data set [13]: Bioavailability in rat. In kind it is ADME, organism-based. To be noted: in vivo.
Data set [14] is described as follows: Clearance in rat plasma at 1 mg/kg, po or 0.5 mg/kg, iv. Format: ADME, organism-based.
The nature of data set [15]: Mean residence time in dog. In kind it is ADME, Canis lupus familiaris. Particulars: in vivo.
A short description of data set [16]: Bioavailability in rat at 1 mg/kg, po or 0.5 mg/kg, iv. In kind it is ADME, organism-based. Particulars: in vivo.
The nature of data set [17]: Bioavailability in dog. Format: ADME, organism-based, Canis lupus familiaris. To be noted: in vivo.
The nature of data set [18]: Intrinsic clearance in dog hepatocytes. Format: ADME, cell-based, Canis lupus familiaris, Hepatocyte. To be noted: read-out: CLH.
Data set [19] is described as follows: Terminal half life in rat at 1 mg/kg, po or 0.5 mg/kg, iv. In kind it is ADME, organism-based. To be noted: in vivo, read-out: beta t1/2 (converted).
The target of data set [20] is T1, Cytochrome P450 3A4 (Homo sapiens, UniProt P08684). The data set can be described thus: Activation of CYP3A4 (unknown origin). Format: ADME.
T1 sequence (P08684 whole entry): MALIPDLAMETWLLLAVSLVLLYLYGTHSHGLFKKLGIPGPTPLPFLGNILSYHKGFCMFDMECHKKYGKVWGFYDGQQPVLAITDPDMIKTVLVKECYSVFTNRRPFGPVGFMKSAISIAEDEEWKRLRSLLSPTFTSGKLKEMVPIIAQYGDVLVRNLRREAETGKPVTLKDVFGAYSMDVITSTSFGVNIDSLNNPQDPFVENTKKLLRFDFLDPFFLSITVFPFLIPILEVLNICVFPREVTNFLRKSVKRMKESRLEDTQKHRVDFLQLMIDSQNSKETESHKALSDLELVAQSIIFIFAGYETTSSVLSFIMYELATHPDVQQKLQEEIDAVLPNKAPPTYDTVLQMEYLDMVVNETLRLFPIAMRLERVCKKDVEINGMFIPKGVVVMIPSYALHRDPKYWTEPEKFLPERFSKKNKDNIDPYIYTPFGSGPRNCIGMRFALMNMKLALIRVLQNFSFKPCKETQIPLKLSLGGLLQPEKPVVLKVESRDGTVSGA
Data set [21] is described as follows: Volume of distribution in dog at 0.5 mg/kg, po or 0.25 mg/kg, iv. In kind it is ADME, organism-based, Canis lupus familiaris. To be noted: in vivo.
Another data set concerns Mus musculus. The data set can be described thus: In vivo activation of p53 pathway in human SJSA-1 cells xenografted in po dosed CD-1 nu/nu mouse assessed as induction of p21 mRNA expression measured after 6 hrs. Format: functional, organism-based. To be noted: dose 100.0 mg/kg.
The test system of the next data set is SJSA-1. Put plainly: Antitumor activity against human SJSA-1 cells xenografted in po dosed CD-1 nu/nu mouse assessed as tumor growth inhibition administered once daily for 7 consecutive days followed by 2 weeks off dosing schedule. In kind it is functional, organism-based. Particulars: time 3.0 weeks.
A short description of data set [22]: Unbound clearance in rat. Format: ADME. To be noted: in vivo.
The next data set deals with Cytochrome P450 2C9 (Homo sapiens, UniProt P11712). The data set can be described thus: Inhibition of CYP2C9 (unknown origin). In kind it is ADME.
Chain of Cytochrome P450 2C9 (P11712 whole entry): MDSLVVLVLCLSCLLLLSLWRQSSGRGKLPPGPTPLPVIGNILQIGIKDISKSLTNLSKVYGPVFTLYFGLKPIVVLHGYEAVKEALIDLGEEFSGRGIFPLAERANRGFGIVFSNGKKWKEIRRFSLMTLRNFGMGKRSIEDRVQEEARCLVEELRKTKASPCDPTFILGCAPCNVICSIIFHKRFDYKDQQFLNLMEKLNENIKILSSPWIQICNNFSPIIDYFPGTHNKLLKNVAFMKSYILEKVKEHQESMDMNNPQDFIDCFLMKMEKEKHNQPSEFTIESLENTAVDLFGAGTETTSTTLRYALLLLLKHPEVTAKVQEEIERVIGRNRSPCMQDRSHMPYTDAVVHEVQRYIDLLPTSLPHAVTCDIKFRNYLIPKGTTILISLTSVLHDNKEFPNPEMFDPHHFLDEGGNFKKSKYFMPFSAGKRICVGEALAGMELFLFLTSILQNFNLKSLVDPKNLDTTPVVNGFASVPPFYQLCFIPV
Data set [23] can be described thus: Unbound clearance in dog. Particulars: in vivo. In kind it is ADME, Canis lupus familiaris.
The target in data set [24] is T1, Cytochrome P450 3A4. Put plainly: Inhibition of CYP3A4 (unknown origin). In kind it is ADME.
The nature of data set [25]: Plasma protein binding in dog. In kind it is ADME, cell-free, Canis lupus familiaris. Particulars: read-out: PPB (converted).
Data set [26] in a line: Plasma protein binding in human. Format: ADME, cell-free. Particulars: read-out: PPB (converted).
In data set [27] the target is Voltage-gated inwardly rectifying potassium channel KCNH2 (Homo sapiens, UniProt Q12809). Put plainly: Inhibition of human ERG.
Chain of Voltage-gated inwardly rectifying potassium channel KCNH2 (Q12809 whole entry): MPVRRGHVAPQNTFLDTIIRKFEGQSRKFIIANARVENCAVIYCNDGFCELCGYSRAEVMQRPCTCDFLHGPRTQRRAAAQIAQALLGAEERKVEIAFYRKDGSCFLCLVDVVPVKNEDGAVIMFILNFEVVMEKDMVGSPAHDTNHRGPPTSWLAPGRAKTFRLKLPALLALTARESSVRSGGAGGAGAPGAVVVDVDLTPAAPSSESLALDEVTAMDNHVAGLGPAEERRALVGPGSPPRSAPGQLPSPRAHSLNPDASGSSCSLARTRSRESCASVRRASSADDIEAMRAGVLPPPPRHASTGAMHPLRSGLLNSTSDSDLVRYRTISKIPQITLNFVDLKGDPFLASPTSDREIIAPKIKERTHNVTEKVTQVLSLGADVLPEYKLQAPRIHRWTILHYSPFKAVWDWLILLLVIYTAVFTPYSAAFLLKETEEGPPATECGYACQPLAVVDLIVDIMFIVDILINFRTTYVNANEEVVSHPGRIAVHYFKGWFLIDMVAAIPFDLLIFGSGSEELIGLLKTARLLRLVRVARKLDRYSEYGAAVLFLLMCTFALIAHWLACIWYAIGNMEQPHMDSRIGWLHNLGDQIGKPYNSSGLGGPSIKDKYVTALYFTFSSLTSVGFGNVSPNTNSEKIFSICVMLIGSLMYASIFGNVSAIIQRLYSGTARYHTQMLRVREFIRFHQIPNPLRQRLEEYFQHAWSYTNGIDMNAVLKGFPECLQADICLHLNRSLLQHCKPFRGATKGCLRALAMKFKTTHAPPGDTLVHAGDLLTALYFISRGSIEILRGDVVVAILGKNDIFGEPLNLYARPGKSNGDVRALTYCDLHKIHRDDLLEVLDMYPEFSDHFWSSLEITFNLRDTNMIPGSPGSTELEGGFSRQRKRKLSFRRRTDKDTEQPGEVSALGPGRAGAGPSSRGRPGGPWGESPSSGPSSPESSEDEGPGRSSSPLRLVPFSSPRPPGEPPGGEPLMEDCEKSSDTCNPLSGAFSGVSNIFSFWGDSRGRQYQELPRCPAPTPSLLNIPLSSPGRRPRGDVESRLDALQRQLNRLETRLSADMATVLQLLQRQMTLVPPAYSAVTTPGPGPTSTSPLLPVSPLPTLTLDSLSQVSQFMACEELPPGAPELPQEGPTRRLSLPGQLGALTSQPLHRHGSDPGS
Data set [28] is described as follows: Volume of distribution in rhesus monkey at 0.5 mg/kg, iv. In kind it is ADME, organism-based, Macaca mulatta. To be noted: in vivo.
Data set [29] can be described thus: Intrinsic Clearance in rhesus monkey hepatocytes. In kind it is ADME, cell-based, Macaca mulatta, Hepatocyte. To be noted: read-out: CLH.
The nature of data set [30]: Bioavailability in dog at 0.5 mg/kg, po or 0.25 mg/kg, iv. In kind it is ADME, organism-based, Canis lupus familiaris. Particulars: in vivo.
The nature of data set [31]: Toxicity in CD-1 mouse xenografted with human SJSA-1 cells assessed as body weight loss at 50 to 100 mg/kg, po administered once daily for 7 consecutive days followed by 2 weeks off dosing schedule. Format: organism-based. To be noted: in vivo, 504 h, dose 50-100 mg/kg, time 3 weeks.
A short description of data set [32]: Terminal half life in rhesus monkey at 0.5 mg/kg, iv. Format: ADME, organism-based, Macaca mulatta. To be noted: in vivo, read-out: beta t1/2 (converted).
A short description of data set [33]: Plasma protein binding in rhesus monkey. To be noted: read-out: PPB (converted). Format: ADME, cell-free, Macaca mulatta.
Data set [34] can be described thus: Volume of distribution in rat at 1 mg/kg, po or 0.5 mg/kg, iv. In kind it is ADME, organism-based. To be noted: in vivo.
The target in the next data set is T2, Cytochrome P450 2C8 (Homo sapiens, UniProt P10632).
T2 sequence (P10632 whole entry): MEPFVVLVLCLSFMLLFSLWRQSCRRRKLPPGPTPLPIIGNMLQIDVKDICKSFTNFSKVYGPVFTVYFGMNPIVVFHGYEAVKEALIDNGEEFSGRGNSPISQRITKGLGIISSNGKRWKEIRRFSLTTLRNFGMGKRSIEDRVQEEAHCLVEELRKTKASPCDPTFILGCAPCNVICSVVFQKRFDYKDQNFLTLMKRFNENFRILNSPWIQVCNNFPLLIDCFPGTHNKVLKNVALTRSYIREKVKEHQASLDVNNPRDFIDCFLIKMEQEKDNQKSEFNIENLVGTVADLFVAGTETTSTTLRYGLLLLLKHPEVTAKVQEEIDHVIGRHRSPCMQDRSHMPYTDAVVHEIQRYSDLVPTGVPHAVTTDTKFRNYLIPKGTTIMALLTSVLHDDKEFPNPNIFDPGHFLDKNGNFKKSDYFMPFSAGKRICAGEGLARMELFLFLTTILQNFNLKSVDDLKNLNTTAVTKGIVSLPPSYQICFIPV
Put plainly: Inhibition of CYP2C8 (unknown origin). Format: ADME.

The target of data set [35] is E3 ubiquitin-protein ligase Mdm2 (Homo sapiens, UniProt Q00987). The data set can be described thus: Binding affinity to HDM2 (unknown origin).
Chain of E3 ubiquitin-protein ligase Mdm2 (Q00987 whole entry): as the sequence (Q00987 whole entry, the tested form may be a part) above

With `C[C@@H](Nc1nc(-c2noc(=O)[nH]2)nc2nc(N3CCOC[C@H]3c3ccccc3)n(C[C@H]3CC[C@H](C)CC3)c12)C1CCC1`, the 50% inhibitory concentration (IC50) in the data set with HCT-116 was 0.446 µM; in data set [2] it was 0.064 µM. Besides, in data set [1], the bioavailability amounted to 2%. Further, the Ratio IC50 in [3] was determined as 100. The mean residence time MRT in [4] came to 0.73 h. Besides, in data set [5], the logD stood at 3.27. The clearance in [6] was found to be 4.38 L/h/kg.
For the compound `C[C@H]1CC[C@H](Cn2c(N3CCO[C@@H]4CCC[C@H]43)nc3cc(-c4noc(=O)[nH]4)nc(-c4cncc(Cl)c4)c32)CC1`, the CLint scaled was determined as 3.48 L/h/kg in data set [7], 15.1 L/h/kg in data set [8], 4.68 L/h/kg in data set [18] and 4.2 L/h/kg in data set [29]. The 50% inhibitory concentration (IC50) is greater than 50 µM at Cytochrome P450 2D6; 0.122 µM in the data set on HCT-116; 31 µM at Cytochrome P450 2C9; greater than 50 µM against Cytochrome P450 3A4 [24]; 12 µM in data set [27]; 0.8 µM against Cytochrome P450 2C8. Moreover, the values for the clearance in [9], in [12] and in data set [14] were 0.744 L/h/kg, 0.084 L/h/kg and 2.16 L/h/kg, respectively. Besides, the results for the half-life in [10], in data set [19] and in data set [32] were 4.2 h, 3 h and 1.6 h, respectively. In addition, the fraction unbound was 0.007 in [11], 0.009 in [25], 0.008 in data set [26] and 0.006 in data set [33]. Further, the bioavailability in data set [13] was 24%; in data set [16], 24%; in data set [17] it was 86%; in [30] it was 86%. For the same compound, the mean residence time MRT was 5.9 h in [15] and 0.6 h in data set [4]. This compound returned an EC50 on Cytochrome P450 3A4 [20] greater than 30 µM. Also, the Vd was 0.39 L/kg in [21], 0.91 L/kg in data set [28] and 1.3 L/kg in data set [34]. Besides, the results for the Activity entry (in the data set on Mus musculus; with SJSA-1; in data set [31]) were “Dose-Dependent Effect”, “Dose-Dependent Effect” and “Non-Toxic”, respectively. Moreover, the CL free was 312.8 L/h/kg in data set [22] and 7.32 L/h/kg in data set [23]. Further, in data set [5], the logD came to 2.46.
In the case of `CCC[C@H]1N(C(=O)c2ncccc2C(F)(F)F)CCC[C@@]1(Oc1csc(C(F)(F)F)c1)C(=O)N1CCC(O)(c2ccccc2O[C@H](C)CCC2(C(=O)O)CCC2)CC1`, in data set [35], the dissociation constant Kd is 0.0038 µM.
